Data set [1] deals with T1, mitoNEET (Homo sapiens, UniProt Q9NZ45).
T1 sequence (Q9NZ45 32-108 limits assumed): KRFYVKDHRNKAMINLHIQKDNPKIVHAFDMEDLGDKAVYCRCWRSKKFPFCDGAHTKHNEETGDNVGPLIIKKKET
Put plainly: [3H]rosiglitazone displacement binding assay (SPA). The conditions noted are these: 20 nM [3H]rosiglitazone, 60 min, room temperature, 50 mM Tris pH 8; ± std error. As for the experimental part: Recombinant mitoNEET was attached to nickel scintillation proximity assay (SPA) beads, and incubated with 20 nM [^3H] rosiglitazone (PerkinElmer) for 60 min at room temperature. The binding buffer was 50 mM Tris pH 8. White clear bottom 96-well plates were used for the assay, and the counts per minute analyzed in a MicroBeta Counter (Perkin Elmer). Data were analyzed as fraction of the total binding using a one-site model with GrapPad Prism 6 statistical software.

In a further data set the test system is N2A mouse neuronal cells. Put plainly: Seahorse bioenergetics mitochondrial stress test. The format is cell-based. The conditions noted are these: 20 μM, three hours, vs DMSO vehicle. As for the experimental part: Mitochondrial bioenergetics were evaluated by the use of the Seahorse 96-well plate reader. Cells were grown in specialty plates from the company, at 20,000 cells per well of N2A mouse neuronal cells. The cells were treated with compounds at 20 μM for three hours, and then a mitochondrial stress test (Seahorse Biosciences) done using compounds which affect mitochondrial function, including oligomycin, FCCP, rotenone, and antimycin A.

For data set [2], the target named is T2, mitoNEET [2Fe-2S] cluster (Homo sapiens, UniProt Q9NZ45).
T2 sequence (Q9NZ45 with tags, fused parts or gaps): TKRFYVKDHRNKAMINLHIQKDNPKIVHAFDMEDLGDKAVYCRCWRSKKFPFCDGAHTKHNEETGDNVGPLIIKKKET
Put plainly: Iron-sulfur cluster release assay. Format: biochemical. The conditions noted are these: 20 μM, pH 6.5, absorbance at 458 nm, room temperature. As for the experimental part:
This method was adapted as previously described. MitoNEET was prepared as described earlier and a stock of 4 mg/mL was used in the assay, in a 50 mM Tris buffer pH 8. […] In each well 80 μL of the appropriate buffer, with either vehicle or compound, and then mitoNEET protein was added at 20 μL. The 96-well plate was analyzed in a BioTek Synergy 4 plate reader, reading at 458 nm for a period of time, at room temperature. For the pH 8, we used 50 mM Tris pH 8, with 100 mM NaCl, and for the pH 6.5, we used the 50 mM Bis–Tris pH 6.5 with 100 mM NaCl buffer solution.

For data set [3], the system named is recombinant mitoNEET (mitoNEET-His protein). Further details: method as in PMID 27687671. The conditions noted are these: read-out: IC50, binding to mitoNEET; cited from earlier work.
Data set [4] has as its target T1, mitoNEET. Put plainly: Pull-down capture assay with furosemide probe on streptavidin beads. Format: binding. The conditions noted are these: 0–100 μM furosemide, N2A cell lysate with recombinant mitoNEET, 100 μM probe, Western blot. As for the experimental part: For the ELISA assay, streptavidin plates (Pierce) were incubated for 30 min with a dose-dilution of the probe, after which an equal amount of recombinant mitoNEET protein was placed into the wells. After 2 h incubation at 4 °C, the plate was washed with a wash buffer with PBS pH 7.4 containing 0.05% Tween-20. The amount of mitoNEET was determine using a mitoNEET primary antibody (ProteinTech) 1:1000, followed by secondary anti-rabbit horseradish peroxidase antibody 1:2000 for 1 h. Detection of the color was done at 450 nm after addition of 3,3′,5,5′-tetramethylbenzidine solution and stopping solutions (Pierce). For the capture assay, N2A cells were lysed and collected with radio-immunoprecipitation assay buffer. […] At the end of the experiment, a magnetic tube rack was used to attract the magnetic beads. The solutions were washed with PBST (pH 7.4, 0.05% Tween-20), boiled for 5 min, and run on a BioRad 4–20% gel for Western Blot analysis (mitoNEET primary antibody 1:1000 and secondary HPR 1:2000).

Data set [5] addresses T1, mitoNEET. Put plainly: Surface plasmon resonance. Conditions: SPR, PBST pH 7.4, 1% DMSO, 25 °C, one-to-one binding model; read-out: equilibrium dissociation constant Kd. In general terms: SPR reads the build-up and loss of mass on a sensor chip optically.
Experimental: Experiments were performed using Reichert4SPR refractometer system (Reichert Technologies, Depew, NY, USA) equipped with a dextran SPR sensor chip (Reichert carboxymethyl dextran P/N 13206066). Acetate buffer was used for immobilization of the protein MN (ligand). […] Data analysis were performed with TraceDrawer software. Final Kd values were determined by fitting to a one-to-one binding model.
Data set [6] in a line: Dynamic light scattering aggregate formation. The format is physicochemical. Conditions: 20 μM in PBS pH 7.4. The procedure: This stock solution was diluted into PBS pH 7.4 to a final concentration of 20 μM, and the evaluated using a Malvern DLS Nano-ZS-90 system (Malvern Instruments).
Data set [7] deals with the molecule itself. Put plainly: crystal structure; mitoNEET (20 mg/ml) with equimolar furosemide, sitting drop vapor diffusion, 60% v/v Tacsimate pH 7.0; 1.95 Å; MR-SAD with PDB 3REE as search model.

Several values for one entry are separate records, joined by “and”; a condition that tells them apart may be missing. Equal entries are not always repeated. Entries after “also recorded” stand apart in the source; their conditions may differ.

Turning to `CCCNc1cc(Cl)c(S(N)(=O)=O)cc1C(=O)O` [2a], the IC50 – broadly, the concentration needed to halve the response being measured – on mitoNEET [1] is 81 µM and 81.4 µM.

With `CCCCNc1cc(Cl)c(S(N)(=O)=O)cc1C(=O)O` [2b], the half-inhibitory concentration (IC50) on mitoNEET [1] was 42.6 ± 1.03 µM.

Molecule `CCCCCNc1cc(Cl)c(S(N)(=O)=O)cc1C(=O)O` [2c] gave an IC50 at mitoNEET [1] of 54.3 ± 0.92 µM.

`CCCCCCNc1cc(Cl)c(S(N)(=O)=O)cc1C(=O)O` [2d] gave an IC50 at mitoNEET [1] of 9.12 ± 1.04 µM.

`CCCCCCCNc1cc(Cl)c(S(N)(=O)=O)cc1C(=O)O` [2e] had a half-inhibitory concentration (IC50) at mitoNEET [1] of 19.8 ± 0.9 µM.

On to `CCCCCCCCNc1cc(Cl)c(S(N)(=O)=O)cc1C(=O)O` [2f], for which the melting point (usually the temperature, or range, at which the solid turns liquid) was 184 to 185 °C. Besides, in the data set with N2A mouse neuronal cells, the ATP-linked oxygen consumption result was “increase”, the “basal respiration (oxygen consumption rate)” value (from here on “basal respiration”) is on record as “increase” and the maximal respiration entry is “increase”. Further, on mitoNEET [1], the IC50 was 6.2 µM and 6.24 µM.

Regarding `NS(=O)(=O)c1cc(C(=O)O)c(NCc2ccccc2)cc1Cl` [2l], in the data set on N2A mouse neuronal cells, the ATP-linked oxygen consumption entry is “increase”, the “basal respiration” value is “increase” and the maximal respiration result was “increase”. In addition, at mitoNEET [1], the IC50 is 20.7 µM and 20.8 µM.

Regarding `NS(=O)(=O)c1cc(C(=O)O)c(NCc2ccc(F)cc2)cc1Cl` [2n], the IC50 at mitoNEET [1] is 8.82 ± 1 µM.

Regarding `NS(=O)(=O)c1cc(C(=O)O)c(NCc2cccs2)cc1Cl` [2p], at mitoNEET [1], the IC50 stood at 12.4 ± 1.23 µM.

On mitoNEET [1], `CCCCC/C=C\C/C=C\C/C=C\C/C=C\CCCC(=O)O` [Arachidonic acid, reference compound] came in with an IC50 of 2.93 ± 1.06 µM.

In the case of `NS(=O)(=O)c1cc(C(=O)O)c(NCc2ccco2)cc1Cl` [Furosemide, furosemide], in the data set with N2A mouse neuronal cells, the “basal respiration” value is recorded as “increase”, the maximal respiration entry is recorded as “increase” and the proton leak entry was “trended to increase”. In data set [2], the “iron-sulfur cluster release from mitoNEET” value is “able to slow down cluster release”. The “iron-sulfur cluster release from mitoNEET” value in data set [2] (listed as furosemide) is given as “able to reduce cluster loss”. Also, the concentration for half-maximal inhibition (IC50) in data set [3] was approximately 40 µM. Besides, at mitoNEET [4], the “mitoNEET captured by furosemide probe in presence of competitor” value is “dose-dependently the reduction of mitoNEET captured; also recorded: able to reduce the amount of mitoNEET captured”. Besides, the IC50 at mitoNEET [1] stood at 29.3 ± 0.97 µM. Also, the Kd – broadly, a measure of binding affinity in units of concentration – at mitoNEET [5] was 53.5 µM. Moreover, the “aggregate formation in solution (DLS)” value in data set [6] is on record as “did not observe any aggregate formation”.

In the case of `NS(=O)(=O)c1cc(C(=O)O)c(Cl)cc1Cl` [compound 1, 2,4-dichloro-5-sulfamoylbenzoic acid, reference compound], the IC50 on mitoNEET [1] is 1021 ± 0.96 µM.

B1: soluble domain of human mitoNEET (domain or fragment)
chain: T2 sequence (Q9NZ45 with tags, fused parts or gaps)
notes: mitoNEET (gene cisd1), human, soluble domain; Each subunit holds a [2Fe-2S] cluster (His87 and three cysteines); also called mN; MN; source: E. coli Rosetta 2 (DE3), purified (Ni-NTA, SUMO protease digestion, second Ni-NTA, size exclusion chromatography); not shown: His-SUMO, N-terminal, cleaved
For B1, in data set [7], the binding result was “binds”.

Source of the values: publication PMC7205193, “Crystal structure of the mitochondrial protein mitoNEET bound to a benze-sulfonide ligand” (Communications chemistry, 2019).
